In patent US20260048151A1, “HEMICYANINE PUSH-PULL DYES BASED ON CHROMENE ELECTRON DONORS” (UNIVERSITY OF CONNECTICUT, priority 2022, published 2026):

Columns and labels:
[1] = Absorption and emission spectra, fluorescence quantum efficiency in EtOH, PBS and lipid vesicles (MLV); assay type: physicochemical; details: for Fluorescence quantum efficiency (FQE): in lipid vesicle suspensions; for emission maximum: membrane-bound (MLV)
Description: FIGS. 2A-2C are plots showing absorption and emission spectra of 2a, in comparison with ElectroFluor630, in various solvent environments: MLV, EtOH, and PBS. Multilamellar lipid vesicle suspension (MLV) was prepared by sonicating soybean phosphatidylcholine in PBS buffer (2 mg/mL) to mimic the cell membrane environment. The emission spectra in ethanol and PBS buffer were scaled 10 and 20 times respectively relative to the emission spectra in MLV. Excitation wavelength is 580 nm for emission spectra.
All chemicals were purchased from commercial sources (Sigma Aldrich, Acros, TCI America, Combi-Blocks, and others) and used without further purification. Column chromatography was generally performed on COMBIFLASH NextGen 300 using normal phase silica columns except that for some final dye products amine silica columns were used. Thin layer chromatography (TLC) was carried out on EM 60 F-254 plastic TLC plates. NMR spectra were recorded on Varian 400 MHz, 500 MHz, and 800 MHz instruments at the UConn Heath Structural Biology Facility. All spectra are referenced internally to TMS or residual solvent signals. Electrospray ionization (ESI) high-resolution mass spectra (HRMS) were obtained on a QStar Elite (AB Sciex) at the Department of Chemistry, University of Connecticut. UV/Vis absorption spectra were recorded on a UV-Visible spectrophotometer (Shimadzu, UV-1601PC) and fluorescence emission spectra on a Horiba Fluorolog spectrofluorometer (Horiba, Inc., Edison, NJ). Fluorescence quantum yield for dyes was determined by a relative method using Rhodamine 6G (excited at 480 nm, FQY=0.95 in EtOH) or cresyl violet (excited at 580 nm, FQY=0.54 in MeOH) as the references.
Absorbance and the fluorescence properties of the new VSDs were determined. The absorption and emission spectra for 2a, together with ElectroFluor630, in aqueous buffer (PBS), ethanol, and when intercalated in the membrane of lipid vesicles are shown in FIGS. 2A-C. […] This is particularly advantageous for fluorescence imaging because background fluorescence from unbound dye is negligible. Another characteristic of the hemicyanine VSDs that is preserved by 2a in FIGS. 2A-C is the large Stokes shift between the excitation and emission maxima. 125 nm for the membrane-bound dye. This is also a benefit for fluorescence detection and imaging, as the fluorescence can be readily filtered from scattered exciting light. The broad wavelength window afforded by the spectra is also an important benefit for the design of experiments with multiple fluorescent sensors. For comparative purposes, certain VSDs are shown below.
As expected, the spectra are largely insensitive to alkyl substitution. Table 1 also includes data for ElectroFluor630 (aka Di-4-ANEQ (F) PTEA) for comparison. The absorption maxima of 2a in ethanol (EtOH), aqueous buffer (PBS) and when bound to lipid membranes (multilamellar vesicles, MLV) are red shifted by 77 nm, 63 nm and 63 nm, respectively, relative to ElectroFluor630, which is isostructural to 2a. […] The absorption and emission spectra of 2a, 2b, and 2c are all shifted to the red by 50-65 nm relative to ElectroFluor630.

[2] = Voltage sensitivity on voltage-clamped hemispherical lipid bilayer; details: for Ex (excitation wavelength of optimal voltage sensitivity) / Voltage Sensitivity ΔF/F per 100 mV: long pass emission filter; for Voltage Sensitivity ΔF/F per 100 mV: magnitude at optimal Ex/Em
Excerpt: It is known that optimal voltage sensitivity can be obtained by measuring the compounds on a voltage-clamped hemispherical bilayer apparatus. The apparatus can include a patch-clamp amplifier, such as a HEKA EPC-8 patch-clamp amplifier. Measurements can be obtained by stepping the membrane potential between two different potentials for a set time lapse. such as, for example, −110 and −60 mV every 10 ms.
Testing VSDs in a voltage-clamped hemispherical lipid bilayer allows one to determine the sensitivity of the VSDs as a function of excitation wavelength. This system has a Teflon tube filled with KCl and is immersed in a KCl solution in a cuvette. A lipid bubble is blown at the tip of the tube and spontaneously forms a bilayer membrane. The VSD to be tested is introduced on one side of the bilayer, usually in the cuvette. Electrodes in the tube and in the cuvette allow the imposition of a voltage across the membrane and a tungsten lamp coupled to a monochromator allows excitation wavelength dependence of the fluorescence response to voltage steps to be determined. This screening approach has allows for the comparison of the efficacy of newly developed VSDs in a well-controlled, consistent manner and to also determine excitation and emission wavelengths with optimal.
Voltage sensitivities of 2a as a function of voltage is shown in FIG. 3A for excitation at 730 nm and 570 nm. The voltage response is linear over the range of −100 mV to +100 mV; 570 nm is slightly to the blue of the isosbestic point, accounting for the weak but inverted sensitivity at this wavelength. […] This opposite polarity at the blue and red edges underlies the ability to use electrochromic hemicyanine dyes for dual-wavelength ratio imaging. The precise location of the isosbestic point in the excitation wavelength depends on the emission filter used because the emission spectrum is also voltage dependent for hemicyanine dyes.
The magnitude and wavelengths of the optimal voltage sensitivities of all the VSDs on the voltage-clamped hemispherical bilayer are included in the third column of Table 1.

[3] = as above; details: 560 nm excitation
[4] = Optimal excitation wavelengths of existing VSDs; assay type: physicochemical
in-vivo pig heart = details: translational in-vivo pig model (Lee, et al., 2019); cited from earlier work
AtT20 cells = assay: Voltage sensitivity in patch clamped tissue culture cells; assay type: cell-based
Excerpt: We were motivated by separate requests from a company, Tara Biosystems, and the academic lab of Dr. Jack Rogers (see letters of support), for cardiac applications requiring recording over the course of longer than a full day. This will require dyes with both improved persistence (i.e. long washout times) and photostability (to allow for recording over long periods without appreciable bleaching or phototoxicity). We addressed these requirements via synthesis of a fluorinated chromophore (to improve photostability) with lengthened alkyl chains (to improve the strength of membrane binding and therefore persistence); we are calling it ElectroFluor630p™ (630 for the optimal excitation wavelength and p for persistent). ElectroFluor630p™ is similar to ElectroFluor630™, except that the butyl chains have been replaced with pentyl chains. We characterized this new VSD on both our voltage clamped hemispherical bilayer and on AtT20 cells. […] In addition, we will follow-up on these measurements extending the excitation wavelengths to include 660 nm. This is expected to further increase sensitivity and is an important wavelength for commercialization since the Photoswitch Bolt system, which is being sold for high-throughput cardiac safety screening studies (see letter from Stephen Smith), uses 660 nm laser excitation.
Turning to Preliminary Results for Aim 2. we have already described our characterization of a new VSD in patch clamped tissue culture cells in FIG. 2.

[5] = in MLV (multilamellar lipid vesicles)

| Compound | absorption maximum ([1]; in EtOH) | absorption maximum [1, 5] | absorption maximum ([1]; in PBS) | Fluorescence quantum efficiency (FQE) [1] | emission maximum [1] | Ex (excitation wavelength of optimal voltage sensitivity) [2] | Voltage Sensitivity ΔF/F per 100 mV [2] | other results |
| --- | --- | --- | --- | --- | --- | --- | --- | --- |
| CCCCN(CCCC)c1ccc2c(c1)OCC(/C=C/c1cc[n+](CCCS(=O)(=O)[O-])cc1F)=C2 [1a] | 577 nm | 540 nm | 546 nm | 0.31 | 673 nm | 660 nm | 12% | shift to the red of results relative to the FIG. 1 dye [2]: ~30 nm |
| CCCCCN(CCCCC)c1ccc2c(c1)OCC(/C=C/c1cc[n+](CCCS(=O)(=O)[O-])cc1F)=C2 [1b] | 580 nm | 540 nm | 552 nm | 0.25 | 677 nm | 640 nm | 8% | – |
| CCCCCCN(CCCCCC)c1ccc2c(c1)OCC(/C=C/c1cc[n+](CCCS(=O)(=O)[O-])cc1F)=C2 [1c] | 579 nm | 534 nm | 515 nm | 0.22 | 675 nm | 630 nm | 11% | – |
| CCCCN(CCCC)c1ccc2c(c1)OCC(/C=C/c1c(F)c[n+](CCC[N+](CC)(CC)CC)c3ccccc13)=C2.[Br-].[Br-] [2a] | 701 nm | 614 nm | 633 nm | 0.10 | 739 nm | 730 nm | 17% | red shift of absorption maximum relative to ElectroFluor630 ([1]; bound to lipid membranes (MLV)): 63 nm; red shift of absorption maximum relative to ElectroFluor630 ([1]; in aqueous buffer (PBS)): 63 nm; red shift of absorption maximum relative to ElectroFluor630 ([1]; in ethanol (EtOH)): 77 nm; fluorescence enhancement upon binding to lipid membranes ([1]; lipid membranes vs unbound dye): over 100 fold; fluorescence quantum efficiency despite bathochromic shift ([1]; membrane bound, vs ElectroFluor630): not diminished; Stokes shift between excitation and emission maxima ([1]; membrane-bound dye): 125 nm; ΔF/F/100 mV ([2]; 730 nm excitation): −17%; excitation wavelength of voltage sensitivity higher than any previous VSDs ([2]; at 730 nm): ~100 nm; voltage response of fluorescence ([2]; range −100 mV to +100 mV, excitation 730 nm and 570 nm): linear; ΔF/F/100 mV [3]: +3% |
| CCCCCN(CCCCC)c1ccc2c(c1)OCC(/C=C/c1c(F)c[n+](CCC[N+](CC)(CC)CC)c3ccccc13)=C2.[Br-].[Br-] [2b] | 700 nm | 611 nm | 628 nm | 0.10 | 736 nm | 720 nm | 10% | – |
| CCCCN(CCCC)c1ccc2cc(/C=C/c3cc[n+](CCCS(=O)(=O)[O-])cc3)ccc2c1 [Di-4-ANEPPS, reference compound] | 496 nm | 464 nm | 447 nm | 0.30 | 617 nm | 550 nm | 10% | – |
| CCCCN(CCCC)c1ccc2cc(/C=C/c3c(F)c[n+](CCC[N+](CC)(CC)CC)c4ccccc34)ccc2c1.[Br-].[Br-] [ElectroFluor630, Di-4-ANEQ (F) PTEA, reference compound] | 618 nm | 547 nm | 565 nm | 0.10 | 686 nm | 645 nm | 12% | optimal dual excitation, lower wavelength [4]: 470 nm; optimal dual excitation, upper wavelength [4]: 630 nm; phototoxicity (in-vivo pig heart): minimal phototoxicity |
| CCCCCN(CCCCC)c1ccc2cc(/C=C/c3c(F)c[n+](CCC[N+](CC)(CC)CC)c4ccccc34)ccc2c1.[Br-].[Br-] [ElectroFluor630p, Di-5-ANEQ(F)PTEA] | – | – | – | – | – | – | – | ΔF/F/100 mV (AtT20 cells; blue-edge excitation): +5.2%; ΔR/R/100 mV (ratio blue/red excitation) (AtT20 cells; ratio measurement): 29.3%; ΔF/F/100 mV (AtT20 cells; red-edge excitation): −19.4% |
| CCCCN(CCCC)c1ccc2cc(/C=C/C=C/c3cc[n+](CCC[N+](C)(C)C)c4ccccc34)ccc2c1.[Br-].[Br-] [di-4-ANBDQPQ] | – | – | – | – | – | – | – | optimal excitation [4]: 630 nm |
